The record followed here is patent publication US11918550B2, “Sensitization of cancer cells to differentiation therapy with mitochondrial uncoupler niclosamide ethanolamine” (The Board of Trustees of the Leland Stanford Junior …, priority 2020, dated 2024).

The structures appear in SMILES notation.

Type in all cases: cell-based
Assay [1] concerns RA-resistant neuroblastoma cells. Kind of assay: Cell proliferation (cell counting), NEN with RA. Conditions: NEN combined with RA, 3 days. Here is the method:
Cell proliferation and clonogenic assay. 2×10^4 cells were seeded in 12 well-plate and allowed to attached overnight. […] After treatment, cells were counted using hemocytometer.

The subject of assay [2] is NB16 cells. The assay is described as follows: Neurite outgrowth and β-tubulin III immunofluorescence (neuron differentiation). The conditions noted are these: 72-96 h. Here is the method:
(§1) Neurite outgrowth assay. The quantification of neurite was performed as described before. Shortly, 1×10^4 SK-N-BE(2) and NB16 cells were plated in a 12 well-plate per well. After overnight incubation, cells were treated with various conditions as indicated for 72 h. Then, images were taken by a Leica Florescent Microscope DMi8 in phase contrast mode (20× magnification). The lengths of the neurites were traced and quantified using the ImageJ plugin NeuronJ. For each sample, total neurite length was measured and normalized to the number of cell bodies, mean value from 3 biological replicates was reported. Immunofluorescence staining. SK-N-BE(2) and NB16 cells were seeded into 8-chamber slides (Thermo Fisher Scientific, 154534) with a density of 6×10^3 cells/well overnight and treated with indicated treatment for 72 h. Cells were fixed with 4% PFA in PBS with 0.1% Tween-20 at RT for 30 minutes followed by permeabilization with 0.1% Triton X-100 in PBS at room temperature for 10 min. The cells were washed with PBS twice and blocked with 2.5% horse serum in PBS at RT for 1 h. Then, cells were subjected to immunofluorescence staining with primary antibody at 4° C. overnight. After two washes with PBS, cells were incubated with Alexa Fluor 594-conjugated anti-rabbit secondary antibody (Life Technologies) at RT for 1 h followed by staining with DAPI (Vector Laboratories, H-1800-2). Images were acquired with Leica DMi8 microscope.

In assay [3] the test system is SK-N-BE(2) cells. The assay is described as above. The conditions noted are these: 72-96 h. As to the method:
as §1

Assay [4] concerns HIF2α. Kind of assay: Western blot of nuclear HIF2α under normoxia or hypoxia. The conditions noted are these: SK-N-BE(2), 2 or 4 μM NEN, 3.5 mM α-KG. Here is the method: Protein extraction and immunoblot. […] Cell lysate was centrifuged at 3000 rpm for 3 min at 4° C. The supernatant containing cytosolic proteins was transferred to a different tube. […] Then the solution was sonicated at 4° C. for 6 cycles (1 cycle=30 s sonication and 30 s cooldown with “High” energy intensity) using a Bioruptor® Plus sonication (Diagenode, UCD-300). After sonication, the solution was centrifuged at 15,000 rpm for 10 minutes. The supernatant was kept as nuclear extraction. […] After blocking in 5% non-fat milk for 30 minutes at room temperature (RT), the primary antibody was added for incubation overnight at 4° C.

Assay [5] relates to NB16 cells. Kind of assay: Relative intracellular metabolite levels by LC/MS. Here is the method:
(§2) Metabolic analysis. For the metabolomics and isotope tracing analysis in vitro, cells were washed with cold PBS, lysed in 80% Ultra LC-MS acetonitrile on ice for 15 minutes, centrifuged at 20,000 g for 10 minutes at 4° C., and supernatant was subjected to mass spectrometry analysis. For the metabolomics analysis in vivo, 10-20 mg tissue were cut off on ice, rinsed if necessary to remove blood, and place in a 2 ml round-bottom cryovial. The tissues were homogenized by 3 times 10 s on/off bursts homogenization in 1 ml 80% methanol on dry ice. Transfer the homogenate to an Eppendorf tube and keep on liquid nitrogen while processing the remaining samples. Incubated all the samples in −80° C. for 30 minutes. After incubation, vortexed the samples for 5 seconds. Then centrifuged the samples at 20,000 g for 10 minutes at 4° C., and supernatant was subjected to mass spectrometry analysis. Resuspend the remaining cellular pellet in 100 ul protein lysis buffer and determine the protein concentration. Then calculate the total protein content per sample.
(§3) Liquid chromatography was performed using an Agilent 1290 Infinity LC system (Agilent, Santa Clara, US) coupled to a Q-TOF 6545 mass spectrometer (Agilent, Santa Clara, US). A hydrophilic interaction chromatography method (HILIC) with a BEH amide column (100×2.1 mm i.d., 1.7 μm; Waters) was used for compound separation at 35° C. with a flow rate of 0.3 ml/minutes. The mobile phase A consisted of 25 mM ammonium acetate and 25 mM ammonium hydroxide in water and mobile phase B was acetonitrile. The gradient elution was 0-1 minute, 85% B; 1-12 minutes, 85% B→65% B; 12-12.2 minutes, 65% B→40% B; 12.2-15 minutes, 40% B. After the gradient, the column was re-equilibrated at 85% B for 5 minutes. The overall runtime was 20 minutes, and the injection volume was 5 μL. Agilent Q-TOF was operated in negative mode and the relevant parameters were as listed: ion spray voltage, 3500 V; nozzle voltage, 1000 V; fragmentor voltage, 125 V; drying gas flow, 11 L/minutes; capillary temperature, 325° C., drying gas temperature, 350° C.; and nebulizer pressure, 40 psi. A full scan range was set at 50 to 1600 (m/z). The reference mass was 119.0363 and 980.0164. The acquisition rate was 2 spectra/s. Targeted analysis, isotopologues extraction and natural isotope abundance correction were performed by Agilent Profinder B.10.00 (Agilent Technologies).

Assay [6] concerns SK-N-BE(2) cells. The assay is described as follows: Relative intracellular metabolite levels by LC/MS. As to the method:
as §2, §3

Setting [7] is: SK-N-BE(2) cells, 1 μM NEN 2 h or 5 h vs DMSO.
[8] abbreviates: SK-N-BE(2) cells, 1 μM NEN 5 h vs DMSO.
The mark [9] stands for this setting: SK-N-BE(2), 1 μM NEN under hypoxia 3 h or 6 h.

Regarding `O=C(Nc1ccc([N+](=O)[O-])cc1Cl)c1cc(Cl)ccc1O` [NEN, 5-chloro-N-(2-chloro-4-nitrophenyl)-2-hydroxybenzamide compound with 2-aminoethanol (1:1)], the “RA-dependent proliferation arrest effect” value in assay [1] is given as “enhanced”. In addition, the “neuron differentiation morphology, NEN combined with RA vs NEN alone” value in assay [2] (NB16, 1 μM NEN + 1 μM 13-cis-RA) is “more profound”. Further, in assay [2] (NB16, 1 μM NEN alone), the “neuron differentiation morphology (neurite length, β-tubulin III staining)” value was “induced”. The “neuron differentiation morphology, NEN combined with RA vs NEN alone” value in assay [3] (1 μM NEN + 1 μM 13-cis-RA) is recorded as “more profound”. Moreover, the “neuron differentiation morphology (neurite length, β-tubulin III staining)” value in assay [3] (1 μM NEN alone) is recorded as “induced”. The “inhibition of the accumulation of HIF2a protein” value in assay [4] is “inhibited”. In assay [5] (1 μM NEN 2 h or 5 h vs DMSO), the aspartate level result was “accumulated”, the citrate level entry is given as “not affected”, the fumarate level entry was “no significant increase” and the “intracellular α-KG levels” value is listed as “increased significantly”. In addition, in assay [5] (1 μM NEN 2 h or 5 h vs DMSO), the malate level entry was “no significant increase” and the succinate level result is “accumulated”. In assay [5] (1 μM NEN 5 h vs DMSO), the intracellular glutamate level result is recorded as “significantly reduced” and the intracellular glutamine level entry is “significantly reduced”. For the same compound, in assay [6] (setting [7]), the aspartate level result is listed as “accumulated”, the citrate level result is “not affected”, the fumarate level entry is reported as “no significant increase” and the “intracellular α-KG levels” value is “increased significantly”. Moreover, in assay [6] (setting [7]), the malate level result was “no significant increase” and the succinate level result is “accumulated”. Also, in assay [6] (setting [8]), the intracellular glutamate level entry is reported as “significantly reduced” and the intracellular glutamine level entry is recorded as “significantly reduced”. For the same compound, in assay [6] (setting [9]), the “2-HG levels under hypoxia” value is reported as “significantly reduced” and the “α-KG level under hypoxia” value is listed as “partially restored”.
